The text below walks through data of patent US20250179078A1, “INHIBITORS OF NLRP3” (PTC THERAPEUTICS, INC., priority 2022, published 2025).

pIC50: −log10 of the molar value.

In this assay the target is T1, NLRP3 (Homo sapiens, UniProt Q96P20).
T1 construct: host or cells: THP-1 cells differentiated with PMA
T1 sequence (Q96P20 whole entry): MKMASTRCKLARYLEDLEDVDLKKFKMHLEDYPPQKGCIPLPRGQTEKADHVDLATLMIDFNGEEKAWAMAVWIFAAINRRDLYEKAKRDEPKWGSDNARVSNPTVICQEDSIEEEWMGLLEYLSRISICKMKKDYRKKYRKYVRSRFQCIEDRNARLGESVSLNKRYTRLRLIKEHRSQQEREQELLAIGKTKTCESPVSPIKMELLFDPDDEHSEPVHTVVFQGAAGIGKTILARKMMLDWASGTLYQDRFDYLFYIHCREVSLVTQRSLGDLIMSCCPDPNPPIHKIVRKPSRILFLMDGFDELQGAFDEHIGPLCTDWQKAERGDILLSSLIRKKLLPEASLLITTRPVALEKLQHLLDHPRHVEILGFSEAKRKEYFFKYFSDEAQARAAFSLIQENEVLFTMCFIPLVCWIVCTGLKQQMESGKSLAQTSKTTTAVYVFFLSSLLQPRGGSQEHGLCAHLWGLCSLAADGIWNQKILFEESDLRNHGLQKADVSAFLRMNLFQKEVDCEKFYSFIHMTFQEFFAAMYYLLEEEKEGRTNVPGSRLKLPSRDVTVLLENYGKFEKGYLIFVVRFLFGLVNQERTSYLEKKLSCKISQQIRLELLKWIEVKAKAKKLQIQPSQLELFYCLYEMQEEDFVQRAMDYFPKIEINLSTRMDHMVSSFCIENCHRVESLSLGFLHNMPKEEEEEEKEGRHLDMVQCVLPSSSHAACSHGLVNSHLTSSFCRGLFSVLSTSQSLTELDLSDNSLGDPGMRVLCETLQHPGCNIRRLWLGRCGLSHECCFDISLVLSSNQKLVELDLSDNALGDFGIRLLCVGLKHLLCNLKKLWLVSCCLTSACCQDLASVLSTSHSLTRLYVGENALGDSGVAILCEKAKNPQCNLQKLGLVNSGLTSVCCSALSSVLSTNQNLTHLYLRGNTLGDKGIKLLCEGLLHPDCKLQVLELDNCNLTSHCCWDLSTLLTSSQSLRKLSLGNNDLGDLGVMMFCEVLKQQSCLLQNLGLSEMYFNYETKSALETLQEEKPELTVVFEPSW
Briefly: IL-1β Secretion Assay (NLRP3-dependent IL1β secretion in THP1 cells). It is filed as cell-based. The note with it: PMA-differentiated THP-1 cells; compounds incubated 20 h; 2.5 μM Nigericin 3 h; HTRF IL-1β readout; read-out: IC50 IL-1β Inhibition. An outline of the steps:
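IL-1β in conditioned media, measured by HTRF after 3 h 2.5 μM nigericin stimulation, gave % inhibition fitted logistically for IC50. Before that, PMA-differentiated (100 ng/mL, 24 h) THP-1 cells were preincubated 20 h with 7 compound concentrations (3-fold serial, DMSO 1:200).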
For the compound `COc1ccc(-c2nnc(N[C@@H]3CCOC[C@H]3O)n3cncc23)c(OC(F)(F)F)c1` [Compound 292, (3S,4R)-4-({1-[4-methoxy-2-(trifluoromethoxy)phenyl]imidazo[1,5-d][1,2,4]triazin-4-yl}amino)oxan-3-ol], the negative logarithm of the IC50 (pIC50) was 7.00 to 8.00.
As for `CCN1CCC[C@@H](Nc2nnc(-c3ccc(C(F)(F)F)cc3CC(F)(F)F)c3cncn23)C1` [Compound 261, N-[(3R)-1-ethylpiperidin-3-yl]-1-[2-(2,2,2-trifluoroethyl)-4-(trifluoromethyl)phenyl]imidazo[1,5-d][1,2,4]triazin-4-amine], the pIC50 is above 9.00.
The value for `COc1ccc(-c2nnc(N[C@@H]3CCCN(C)C3)n3cccc23)c(CC(F)(F)F)c1` [Compound 145, 1-[4-methoxy-2-(2,2,2-trifluoroethyl)phenyl]-N-[(3R)-1-methylpiperidin-3-yl]pyrrolo[1,2-d][1,2,4]triazin-4-amine] was above 9.00; that for `COc1ccc(-c2nnc(N[C@@H]3C[C@@H](F)CN(C)C3)n3ccc(F)c23)c(OC(F)(F)F)c1` [Compound 52, 8-fluoro-N-[(3R,5R)-5-fluoro-1-methylpiperidin-3-yl]-1-[4-methoxy-2-(trifluoromethoxy)phenyl]pyrrolo[1,2-d][1,2,4]triazin-4-amine] was 8.00 to 9.00.
The value for `C[C@]1(O)C[C@@H](Nc2nnc(-c3ccc(C(F)(F)F)cc3C(F)(F)F)c3ccnn23)C1` [Compound 4, (1s,3s)-3-({4-[2,4-bis(trifluoromethyl)phenyl]pyrazolo[1,5-d][1,2,4]triazin-7-yl}amino)-1-methylcyclobutan-1-ol] was 8.00 to 9.00; that for `COc1ccc(-c2nnc(N[C@@H]3CCCC[C@H]3O)n3cncc23)c(C2CC2)c1` [Compound 321, (1R,2R)-2-{[1-(2-cyclopropyl-4-methoxyphenyl)imidazo[1,5-d][1,2,4]triazin-4-yl]amino}cyclohexan-1-ol] was 7.00 to 8.00; that for `COc1ccc(-c2nnc(N[C@@H]3CCCN(CCO)C3)n3cccc23)c(OC2CC2)c1` [Compound 143, 2-[(3R)-3-({1-[2-(cyclopropyloxy)-4-methoxyphenyl]pyrrolo[1,2-d][1,2,4]triazin-4-yl}amino)piperidin-1-yl]ethan-1-ol] was 7.00 to 8.00.
The value for `CCN1C[C@H](F)C[C@@H](Nc2nnc(-c3ccc(C(F)(F)F)cc3OC(F)F)c3c(F)ccn23)C1` [Compound 5, 1-[2-(difluoromethoxy)-4-(trifluoromethyl)phenyl]-N-[(3R,5R)-1-ethyl-5-fluoropiperidin-3-yl]-8-fluoropyrrolo[1,2-d][1,2,4]triazin-4-amine] was 8.00 to 9.00; that for `Cc1cc2c(-c3ccc(C(F)(F)F)cc3C(F)(F)F)nnc(N[C@H]3C[C@@](C)(O)C3)n2c1` [Compound 107, (1s,3s)-3-({1-[2,4-bis(trifluoromethyl)phenyl]-7-methylpyrrolo[1,2-d][1,2,4]triazin-4-yl}amino)-1-methylcyclobutan-1-ol] was 7.00 to 8.00; that for `COc1ccc(-c2nnc(N[C@@H]3CCC[C@H]3O)n3cncc23)c(OC(F)(F)F)c1` [Compound 221, (1R,2R)-2-({1-[4-methoxy-2-(trifluoromethoxy)phenyl]imidazo[1,5-d][1,2,4]triazin-4-yl}amino)cyclopentan-1-ol] was 7.00 to 8.00.
Consider `COc1ccc(-c2nnc(N[C@H](C)c3cccc(O)c3)n3cncc23)c(OC(F)(F)F)c1` (single isomer, unassigned) [Compound 248], for which the pIC50 is at most 6.52.
The value for `OC[C@H]1C[C@@H](Nc2nnc(-c3ccc(C(F)(F)F)cc3OC(F)(F)F)c3cncn23)C1` [Compound 255, [(1s,3s)-3-({1-[2-(trifluoromethoxy)-4-(trifluoromethyl)phenyl]imidazo[1,5-d][1,2,4]triazin-4-yl}amino)cyclobutyl]methanol] was 8.00 to 9.00; that for `Cc1cc2c(-c3ccc(Cl)cc3OC(F)F)nnc(N[C@@H]3CCCN(C)C3)n2c1` [Compound 13, 1-[4-chloro-2-(difluoromethoxy)phenyl]-7-methyl-N-[(3R)-1-methylpiperidin-3-yl]pyrrolo[1,2-d][1,2,4]triazin-4-amine] was 8.00 to 9.00.
Then `O[C@H]1CCC[C@@H](Nc2nnc(-c3ccc(OC(F)F)cc3OC(F)(F)F)c3cncn23)C1` [Compound 245, (1S,3R)-3-({1-[4-(difluoromethoxy)-2-(trifluoromethoxy)phenyl]imidazo[1,5-d][1,2,4]triazin-4-yl}amino)cyclohexan-1-ol], with 8.00 to 9.00; and `CCc1ccc(-c2nnc(N[C@@H]3CCCN(C)C3)n3cccc23)c(OC(F)(F)F)c1` [Compound 42, 1-[4-ethyl-2-(trifluoromethoxy)phenyl]-N-[(3R)-1-methylpiperidin-3-yl]pyrrolo[1,2-d][1,2,4]triazin-4-amine], with 8.00 to 9.00.
The value for `CN1CCC[C@@H](Nc2nnc(-c3ccc(Cl)cc3OC(F)F)c3cncn23)C1` [Compound 190, 1-[4-chloro-2-(difluoromethoxy)phenyl]-N-[(3R)-1-methylpiperidin-3-yl]imidazo[1,5-d][1,2,4]triazin-4-amine] was above 9.00; that for `O=C1NCCC1Nc1nnc(-c2ccc(Cl)cc2OC(F)(F)F)c2cncn12` (centres unmarked) [Compound 287, 3-({1-[4-chloro-2-(trifluoromethoxy)phenyl]imidazo[1,5-d][1,2,4]triazin-4-yl}amino)pyrrolidin-2-one] was 8.00 to 9.00.
Take `CCN1CC[C@@H](O)[C@@H](Nc2nnc(-c3ccc(OC)cc3OC(F)(F)F)c3cc(C)cn23)C1` [Compound 135, (3S,4R)-1-ethyl-3-({1-[4-methoxy-2-(trifluoromethoxy)phenyl]-7-methylpyrrolo[1,2-d][1,2,4]triazin-4-yl}amino)piperidin-4-ol]: the pIC50 is above 9.00.
With `COc1cc(F)c(-c2nnc(N[C@@H]3CCCN(C)C3)n3cccc23)c(C2CC2)c1` [Compound 75, 1-(2-cyclopropyl-6-fluoro-4-methoxyphenyl)-N-[(3R)-1-methylpiperidin-3-yl]pyrrolo[1,2-d][1,2,4]triazin-4-amine], the pIC50 was 8.00 to 9.00.
Turning to `FC(F)(F)Cc1cc(C(F)(F)F)ccc1-c1nnc(Nc2cc[nH]n2)n2cccc12` [Compound 97, N-(1H-pyrazol-3-yl)-1-[2-(2,2,2-trifluoroethyl)-4-(trifluoromethyl)phenyl]pyrrolo[1,2-d][1,2,4]triazin-4-amine], the negative logarithm of the IC50 (pIC50) was 7.00 to 8.00.
The value for `COc1ccc(-c2nnc(N[C@@H]3CCCC[C@H]3O)n3nc(C)cc23)c(CC(F)(F)F)c1` [Compound 385, (1R,2R)-2-({4-[4-methoxy-2-(2,2,2-trifluoroethyl)phenyl]-2-methylpyrazolo[1,5-d][1,2,4]triazin-7-yl}amino)cyclohexan-1-ol] was 8.00 to 9.00.
The value for `Cc1ccc(-c2nnc(N[C@@H]3CCCN(C)C3)n3cncc23)c(C(F)(F)F)c1` [Compound 206, N-[(3R)-1-methylpiperidin-3-yl]-1-[4-methyl-2-(trifluoromethyl)phenyl]imidazo[1,5-d][1,2,4]triazin-4-amine] was above 9.00; that for `C[C@]1(CO)C[C@@H](Nc2nnc(-c3ccc(C(F)(F)F)cc3CC(F)(F)F)c3cncn23)C1` [Compound 343, [(1s,3s)-1-methyl-3-({1-[2-(2,2,2-trifluoroethyl)-4-(trifluoromethyl)phenyl]imidazo[1,5-d][1,2,4]triazin-4-yl}amino)cyclobutyl]methanol] was above 9.00.
